Measurements published in patent US20030109418A1, “Methods for identifying compounds for inhibition of neoplastic lesions, and pharmaceutical compositions containing such compounds” (priority 1999, published 2003).
Read-outs that look alike come from different tables or passages of the source. Each block holds one compound with its values, some of them ahead of it.

Columns and labels:
[1] = molecular target: T1, cGMP binding sites of the GST-cGB-PDE5 protein (Homo sapiens, UniProt O76074); test: cGMP binding assay with GST-cGB-PDE5 fusion protein; settings: for competition with cGMP binding at high concentration: 100 μM competitor, cGMP 2 μM
T1 construct: made in house; host or cells: E. coli BL21 (DE3)

[2] = molecular target: T2, PDE peak A (PDE5) from SW480 cells (Homo sapiens, UniProt O76074); test: cGMP hydrolysis inhibition, PDE peak A from SW480; type: biochemical
T2 construct: endogenous in cells; host or cells: SW480 colon cancer cells, DEAE-Trisacryl M fraction

[3] = tested on: HT-29 colon adenocarcinoma cells; test: Apoptosis by DNA fragmentation assay in HT-29; type: cell-based, human; settings: qualitative activity profile; also: key: −: Not active; +: Slightly active; ++: Moderately active; +++: Strongly active; ++++: Highly active
[4] = tested on: cGMP PDE purified from human colon HT-29 cultured tumor cells; test: cGMP PDE inhibition assay; type: biochemical; settings: for PDE Inhibition: qualitative activity profile
[5] = tested on: premalignant lesions in mouse mammary gland organ culture; test: Mammary gland organ culture model; type: cell-based; settings: for Mammary Gland Organ Culture: qualitative activity profile; as to mammary gland organ culture: key: −: Not active; +: Slightly active; ++: Moderately active; +++: Strongly active; ++++: Highly active
From the text: Test compounds identified by the above methods can be tested for antineoplastic activity by their ability to inhibit the incidence of pre-neoplastic lesions in a mammary gland organ culture system. This mouse mammary gland organ culture technique has been successfully used by other investigators to study the effects of known antineoplastic agents such as certain NSAIDs, retinoids, tamoxifen, selenium, and certain natural products, and is useful for validation of the screening method of the present invention.
For example, female BALB/c mice can be treated with a combination of estradiol and progesterone daily, in order to prime the glands to be responsive to hormones in vitro. The animals are sacrificed, and thoracic mammary glands are excised aseptically and incubated for ten days in growth media supplemented with insulin, prolactin, hydrocortisone, and aldosterone. DMBA (7,12-dimethylbenz(a)anthracene) is added to medium to induce the formation of premalignant lesions. Fully developed glands are then deprived of prolactin, hydrocortisone, and aldosterone, resulting in the regression of the glands but not the pre-malignant lesions.
The test compound is dissolved in DMSO and added to the culture media for the duration of the culture period. At the end of the culture period, the glands are fixed in 10% formalin, stained with alum carmine, and mounted on glass slides. The incidence of forming mammary lesions is the ratio of the glands with mammary lesions to […]. The incidence of mammary lesions in test compound treated glands is compared with that of the untreated glands.
The extent of the area occupied by the mammary lesions can be quantitated by projecting an image of the gland onto a digitation pad. The area covered by the gland is traced on the pad and considered as 100% of the area. The space covered by each of the non-regressed structures is also outlined on the digitization pad and quantitated by the computer.
Mammary gland organ culture experiment were performed as previously described (Mehta and Moon, Cancer Research, 46: 5832-5835, 1986). […] The data support the hypothesis that cyclooxygenase inhibition is not necessary for the anti-neoplastic properties of desired compounds.

[6] = tested on: HT-29 human colon carcinoma cell line; test: Growth inhibition, SRB assay, HT-29; type: cell-based; design: Growth Inhibition: key to the marks not given beside the values; settings: for IC50: HT-29 treated for 6 days, SRB assay, read-out: Growth inhibition (IC50); for Growth Inhibition: qualitative activity profile
HT-29 cells = test: Apoptosis and necrosis by morphology (acridine orange and ethidium bromide); type: cell-based, human; settings: HT-29 treated for 6 days
From the text: Apoptosis occurs naturally during normal tissue turnover and during embryonic development of organs and limbs. Apoptosis also is induced by cytotoxic T-lymphocytes and natural killer cells, by ionizing radiation and by certain chemotherapeutic drugs. Inappropriate regulation of apoptosis is thought to play an important role in many pathological conditions including cancer, AIDS, or Alzheimer's disease, etc. Compounds can be screened for induction of apoptosis using cultures of tumor cells maintained under conditions as described above. Treatment of cells with test compounds involves either pre- or post-confluent cultures and treatment for two to seven days at various concentrations. Apoptotic cells are measured in both the attached and “floating” compartments of the cultures. Both compartments are collected by removing the supernatant, trypsinizing the attached cells, and combining both preparations following a centrifugation wash step (10 minutes, 2000 rpm). The protocol for treating tumor cell cultures with sulindac and related compounds to obtain a significant amount of apoptosis has been described in the literature. (See, Piazza, G. A., et al., Cancer Research, 55:3110-16, 1995, which is incorporated herein by reference). The novel features include collecting both floating and attached cells, identification of the optimal treatment times and dose range for observing apoptosis, and identification of optimal cell culture conditions.
Following treatment with a compound, cultures can be assayed for apoptosis and necrosis by florescent microscopy following labeling with acridine orange and ethidium bromide. The method for measuring apoptotic cell number has previously been described by Duke & Cohen, “Morphological And Biochemical Assays Of Apoptosis,” Current Protocols In Immunology, Coligan et al., eds., 3.17.1-3.17.16 (1992, which is incorporated herein by reference).
For example, floating and attached cells can be collected by trypsinization and washed three times in PBS. Aliquots of cells can be centrifuged. The pellet can then be re-suspended in media and a dye mixture containing acridine orange and ethidium bromide prepared in PBS and mixed gently. The mixture can then be placed on a microscope slide and examined for morphological features of apoptosis.
Reference compounds and test compounds were analyzed for their novel PDE inhibitory activity in accordance with the protocols for the assay, supra. […] Apoptotic and necrotic cell death was determined previously (Duke and Cohen, In: Current Protocols in Immunology, 3.17.1-3.17.16, New York, John Wiley and Sons, 1992). […] All data were collected from the same experiment.
The apoptosis inducing activity for a series of phosphodiesterase inhibitors was determined. HT-29 cell were treated for 6 days with various inhibitors of phosphodiesterase. Apoptosis and necrosis were determined morphologically after acridine orange and ethidium bromide labeling in accordance with the assay described, supra.

[7] = molecular target: T3, purified cyclooxygenase (Type 1, COX-I) from ram seminal vesicles (Ovis aries, UniProt P05979); test: COX inhibition assay, purified cyclooxygenase; type: biochemical; settings: for COX Inhibition: qualitative activity profile
T3 construct: using purified cyclooxygenase from ram seminal vesicles as described previously; tissue Cayman Chemical, Ann Arbor, Mich; (named in the general protocol only); host or cells: ram seminal vesicles
T3 sequence (P05979 25-600): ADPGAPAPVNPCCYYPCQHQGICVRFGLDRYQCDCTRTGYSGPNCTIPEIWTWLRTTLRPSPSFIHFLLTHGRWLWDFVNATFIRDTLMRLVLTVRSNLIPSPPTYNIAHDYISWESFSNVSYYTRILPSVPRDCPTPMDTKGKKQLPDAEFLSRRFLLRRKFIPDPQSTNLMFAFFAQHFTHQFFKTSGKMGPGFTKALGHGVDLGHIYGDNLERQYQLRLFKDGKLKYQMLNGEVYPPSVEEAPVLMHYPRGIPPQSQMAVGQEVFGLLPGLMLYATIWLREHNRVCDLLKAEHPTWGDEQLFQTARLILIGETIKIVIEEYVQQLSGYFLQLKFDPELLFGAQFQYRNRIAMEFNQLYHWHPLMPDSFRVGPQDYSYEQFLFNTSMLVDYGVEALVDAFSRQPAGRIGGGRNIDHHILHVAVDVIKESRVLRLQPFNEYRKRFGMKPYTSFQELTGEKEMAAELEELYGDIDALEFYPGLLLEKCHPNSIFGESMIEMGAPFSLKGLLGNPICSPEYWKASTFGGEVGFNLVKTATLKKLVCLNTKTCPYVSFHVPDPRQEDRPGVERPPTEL

[8] = tested on: cGMP and cAMP levels in HT-29 cells; test: Cyclic nucleotide levels in cultured cells by radioimmunoassay; type: cell-based, human; settings: HT-29 cells treated 30 minutes

Ratio (IC50 Peak A/Peak B) [2]: <0.31
Compound: CC1(C)C(=O)Nc2ccc(C3=NNC(=O)CC3)cc21 [Indolidan]

IC50 [6]: 5 µM | Cyclooxygenase inhibitory activity, % Inhibition at 100 μM [7]: 94% | COX Inhibition [7]: ++++
Compound: Clc1cccc(Nc2nnc(-c3ccccc3)c3ccccc23)c1 [MY5445, 1-(3-chloroanilino)-4-phenyphthalazine]
Apoptosis [3]: +++ | PDE Inhibition [4]: +++ | Mammary Gland Organ Culture [5]: + | Growth Inhibition [6]: +++ | % Apoptosis (HT-29 cells): 80% | % Necrosis (HT-29 cells): 5%

competition with cGMP in binding of GST-cGB-PDE5 ([1]; 3H-cGMP 2 μM): did not compete with cGMP in binding
Compound: Nc1ccn([C@@H]2O[C@@H]3COP(=O)(O)O[C@H]3[C@H]2O)c(=O)n1 [cCMP]

Cyclooxygenase inhibitory activity, % Inhibition at 100 μM [7]: <25% | COX Inhibition [7]: −
Compound: CC(=O)NC(CSC12CC(=O)OC1(C)/C(=C/c1ccc(S(C)(=O)=O)cc1)c1ccc(F)cc12)C(=O)O (racemic) [D, rac-(E)-1-(butan-1′,4′-olido)-[3′,4′: 1,2]-6-fluoro-2-methyl-3-(p-methylsulfonylbenzylidene)-1S-indanyl-N-acetylcysteine]
Apoptosis [3]: − | PDE Inhibition [4]: − | Mammary Gland Organ Culture [5]: − | Growth-inhibitory activity, % Inhibition at 100 μM [6]: 78% | Growth Inhibition [6]: ++

IC50 [6]: > 100 µM
Compound: CC(C)Cn1c(=O)n(C)c(=O)c2[nH]cnc21 [IBMX]
% Apoptosis (HT-29 cells): 4% | % Necrosis (HT-29 cells): 13%

COX Inhibition [7]: −
Compound: CC1=C(CC(=O)N(C2CCCCC2)C2CCCCC2)c2cc(F)ccc2/C1=C\c1ccc(S(C)(=O)=O)cc1 [F, (Z)-5-Fluoro-2-methyl-1-(p-methylsulfonylbenzylidene)-3-indenylacetamide, N,N′-dicyclohexyl]
Apoptosis [3]: + | PDE Inhibition [4]: − | Mammary Gland Organ Culture [5]: − | Growth Inhibition [6]: ++

IC50 [6]: > 200 µM
Compound: CCCCOc1cc(CC2CNC(=O)N2)ccc1OC (centres unmarked) [RO-20-1724]
% Apoptosis (HT-29 cells): 11% | % Necrosis (HT-29 cells): 2%

competition with cGMP in binding of GST-cGB-PDE5 ([1]; 3H-cGMP 2 μM): did not compete with cGMP in binding
Compound: O=c1ccn([C@@H]2O[C@@H]3COP(=O)(O)O[C@H]3[C@H]2O)c(=O)[nH]1 [cUMP]

The remaining lines, values behind:

Compound: O=c1[nH]cnc2c1ncn2[C@@H]1O[C@@H]2COP(=O)(O)O[C@H]2[C@H]1O [Cyclic IMP]
competition with cGMP binding at high concentration [1]: can partially compete

Compound: Nc1nc2c(nc(Br)n2[C@@H]2O[C@@H]3COP(=O)(O)O[C@H]3[C@H]2O)c(=O)[nH]1 [Compound 8-bromo-cGMP]
competition with cGMP binding at high concentration [1]: can partially compete

Compound: Nc1ncnc2c1ncn2[C@@H]1O[C@@H]2COP(=O)(O)O[C@H]2[C@H]1O [Cyclic AMP]
competition with cGMP in binding of GST-cGB-PDE5 [1]: did not compete with cGMP in binding

Compound: CCCOc1ccccc1-c1nc2nn[nH]c2c(=O)[nH]1 [Zaprinast]
competition with cGMP in binding of GST-cGB-PDE5 ([1]; 3H-cGMP 2 μM): do not bind to the cGMP binding sites of PDE5

Compound: COc1nc2c([nH]1)c(=O)n(C)c(=O)n2CC(C)C [8-methoxy-IBMX]
IC50 [6]: > 200 µM | % Apoptosis (HT-29 cells): 2% | % Necrosis (HT-29 cells): 1%

Compound: COc1ccc(C2CNC(=O)C2)cc1OC1CCCC1 (centres unmarked) [Rolipram]
effect on cAMP levels [8]: increased cAMP

Compound: rac-(E)-1-(butan-1′, 4′-olido)-[3′, 4′: 1,2]-6-fluoro-2-methyl-3-(p-methylsulfonylbenzylidene)-1S-indanyl-glutathione)
Apoptosis [3]: − | PDE Inhibition [4]: − | Mammary Gland Organ Culture [5]: − | Growth Inhibition [6]: ++ | COX Inhibition [7]: −

Compound: CC1=C(CC(=O)O)c2cc(F)ccc2/C1=C\c1ccc([S+](C)[O-])cc1 (centres unmarked) [sulindac]
inhibition of the formation of premalignant lesions ([5]; mammary gland organ culture): effectively inhibit the formation of premalignant lesions

Compound: CCCCOC1C2OP(=O)(O)OCC2OC1n1cnc2c(N)ncnc21 (centres unmarked) [2′-O-butyl-cAMP]
competition with cGMP in binding of GST-cGB-PDE5 ([1]; 3H-cGMP 2 μM): did not compete with cGMP in binding

Compound: ribo-(E)-1-Triazolo-[2′, 3′: 1″, 3″]-1-(butan-1′, 4′-olido)-[3′, 4′: 1, 2]-6-flouro-2-methyl-3-(p-methylsulfonylbenzylidene)-indan [G]
Apoptosis [3]: ++ | PDE Inhibition [4]: − | Mammary Gland Organ Culture [5]: +++ | Growth Inhibition [6]: +++ | COX Inhibition [7]: −

Compound: CCCCOC1C2OP(=O)(O)OCC2OC1n1cnc2c(=O)[nH]c(N)nc21 (centres unmarked) [2′-O-butyl-cGMP]
competition with cGMP in binding of GST-cGB-PDE5 ([1]; 3H-cGMP 2 μM): did not compete with cGMP in binding

Compound: CC1=C(CC(=O)O)c2cc(F)ccc2/C1=C\c1ccc(Cl)cc1 [Compound C, (Z)-5-Fluoro-2-methyl-1-(p-chlorobenzylidene)-3-acetic acid]
cGMP PDE inhibitory activity, % Inhibition at 10 μM ([4]; 10 μM): <25% | Growth-inhibitory activity, % Inhibition at 100 μM [6]: 80%
